# Experimental data taken from article PMC11475408, “All‐Inorganic Polyoxometalates Act as Superchaotropic Membrane Carriers” (Advanced Materials (Deerfield Beach, Fla.), 2023).
# Where two headings read alike, the source gives them in different places.
# What was measured:
# [1] = Hydrolysis/stability of POMs in buffer by NMR; conditions: for Hydrolysis/stability pH 5.5: 10 mM Mes, 107 mM NaCl, long-term (24 h and longer)
# Experimental: First, their long‐term (24 h and longer) fate in aqueous solution (slightly acidic and neutral) was investigated by applying the active NMR nuclei in their composition (Table S9 and Figures S24–S37, see the Supporting Information for details).
# NMR-spectroscopic characterization of identity and stability
# NMR spectroscopy for all POMs tested was performed under experimental conditions.
# heptalysine = assay: ITC, POM into heptalysine; type: binding; conditions: 10 mM Tris, pH 7.4, value is Ka divided by 10^7
# Experimental: All experiments were performed with a VP‐ITC MicroCalorimeter from MicroCal, Int,. at atmospheric pressure and 298.15 K. Solutions were degassed and thermostatic prior to the titration experiments in a ThermoVac accessory. A constant volume of POM ([PVW11]^4‒ or [SiMoW11]^4‒) (10 µL per injection) was injected into the oligopeptide solution (heptaArg, protamine, polyArg or heptaLys) in 10 mM Tris, pH 7.4 to determine the apparent binding affinity of [PVW11]^4‒ and [SiMoW11]^4‒ with the oligopeptides. Dilution heats were determined by titration of the POM into buffer and subtracted from the reaction heat. The neat reaction heat was fitted with Origin 7.0 software by using the “one‐set‐of‐sites” model to obtain the complex stability constant (K a) and molar reaction enthalpy (∆H°). The free energy (∆G°) and entropy changes (∆S°) were obtained according to the relation: ∆G° = −RTlnK a = ∆H°−T∆S°.
# Figure S11. Microcalorimetric titrations in 10 mM Tris, pH 7.4: Raw ITC data (top) for the sequential injections of POM solution into a heptalysine solution, and apparent reaction heats (bottom) obtained from the integration of the calorimetric traces. POM/heptalysine concentrations in µM: a, 200/8 and b, 150/10. Error data is 5% for the n values and ± 0.5 kcal mol‒1 for ΔH and TΔS (duplicate […]
# Table S6. […]
# [2] = CF transport assay in EYPC⊃CF vesicles (carrier activity); type: biochemical; parameters: key to Carrier activity: ‐ – ‐: No detectable activity at pH 5.5 and 7.4; conditions: for heptaLys Ymax / EC50 / HeptaArg Y max / PolyArg Y max / Protamine Y max / HeptaArg Ymax, pH 5.5 / PolyArg Ymax, pH 5.5 / Protamine Ymax, pH 5.5: CF assay; for heptaLys Ymax: 13 µM phospholipids; for heptaLys Ymax / HeptaArg Y max / PolyArg Y max / Protamine Y max / HeptaArg Ymax, pH 5.5: ±2% error (SD); for HeptaArg Y max: 13 µM lipid, 10 mM Hepes or Tris, 10 min, Hill fit, triplicates; for heptaLys E / PolyArg E (activation efficiency) / Protamine E (activation efficiency) / HeptaArg E (activation efficiency) / HeptaArg E, pH 5.5 / PolyArg E, pH 5.5 / Protamine E, pH 5.5: f = 20.6; for heptaLys E / PolyArg E (activation efficiency) / Protamine E (activation efficiency) / HeptaArg E (activation efficiency) / HeptaArg E, pH 5.5: 10% error; for HeptaArg E (activation efficiency): E = Ymax(pEC50/f); for Transport activity (in words): EYPC⊃CF vesicles, neutral pH, carrier then cargo; for Onset for transport activity (carrier concentration): vesicles, heptaArg dose-response curves (Figure 2b)
# Source text: The capability of POMs to act as membrane carriers was explored first in large unilamellar vesicles (LUVs) loaded with carboxyfluorescein (CF).^[ [54], [55] ^] We selected […] representative cationic peptides, heptaarginine (heptaArg), heptalysine (heptaLys), protamine, and polyarginine (polyArg), as test cargos. Inside the LUVs, the CF dye was encapsulated at self‐quenching concentrations. With a suitable carrier, heptaArg can be taken up into the vesicles, bind with entrapped CF, and shuttle back to the exterior, diluting the previously quenched CF, and thereby restoring its fluorescence (Figure 1c). In the time‐resolved fluorescence experiments (Figure 2a), to test whether a particular POM acts as molecular carrier, the CF emission was continuously monitored during the addition of the inorganic carrier (t = 60 s) and after injection of the impermeable selected cargo (t = 120 s). Toward the end of the experiment (t = 600 s), the surfactant Triton X‐100 was added to release all the entrapped CF and allow normalization of the intensity data.
# A thin lipid film was prepared by evaporating a lipid solution of EYPC (egg yolk phosphatidylcholine, 25 mg) in CHCl3 (1 mL) with a stream of nitrogen and then dried in vacuo overnight. The dry film was rehydrated with 1 mL buffer (50 mM CF, 10 mM Hepes, pH 7.4 or 50 mM CF, 10 mM Tris, pH 7.4) for 30 min at room temperature, subjected to freeze–thaw cycles (7 times) and extrusions (15 times) through a polycarbonate membrane (pore size 100 nm). Extravesicular components were removed by size exclusion chromatography (NAP‐25 column Sephadex G‐25 DNA grade) with 10 mM Hepes, 107 mM NaCl, pH 7.4, or 10 mM Hepes, 107 mM NaCl, pH 7.4. Phospholipid concentration was calculated by the Stewart assay.^[ [81] ^]
# Acidic vesicles were prepared analogously but the rehydration and elution buffer were 50 mM CF, 10 mM Mes, pH 5.5 and 10 mM Mes, 107 mM NaCl, pH 5.5. respectively.
# Vesicles stock solutions (5–10 µL) were diluted with the corresponding buffer in a disposable plastic cuvette and gently stirred (total volume 2000 µL, final lipid concentration 13 µM). Carboxyfluorescein fluorescence was monitored at λ em = 517 nm (λ ex = 492 nm) as a function of time after addition of POMs at 60 s, analyte at 120 s and Triton X‐100 (24 µL 1.2% wt/vol) at 600 s to lyse the vesicles, for calibration. Fluorescence intensities were normalized to fractional emission as (1) It=It−I0/I∞−I0 where I 0 = I t before POM addition and […] after lysis. For Hill analysis, I t before lysis was defined as transport activity, Y, and plotted against POM concentration, c, and fitted to the Hill Equation (2), to afford the activity in absence of POM, Y 0, the maximal activity, Y max, the concentration needed to achieve 50% of maximal activity, EC 50, and the Hill coefficient, n (2) Y=Y0+Ymax−Y0/1+EC50/c^n
# In the transport measurements, where different carriers (POMs) are tested with the same cargo, the activator efficiency (E) is determined by their capacity to transport the impermeable cargo to the intravesicular region and is characterized by Y max, its maximal activity, and EC 50, the effective activator concentration. An ideal carrier reaches high Y max at low EC 50. To count both factors, the activator efficiency is defined as (3) E=YmaxpEC50/f were pEC 50 is the negative logarithm of the EC 50, and f a scaling factor, which was set to 20.6 to calibrate the highest (previously known) activation efficiency, E, as 10.^[ [55] ^]
# [3] = 3 mM POM, 10 mM Mes pH 5.5, 31P NMR integration
# [4] = 3 mM POM, 10 mM Tris-HCl pH 7.5, 31P NMR integration
# [5] = EYPC (zwitterionic), heptaLys cargo
# [6] = EYPC (zwitterionic), heptaLys cargo, 5% error (SD), read-out: heptaLys EC50
# [7] = EYPC LUVs, 10 µM heptaArg, 107 mM NaCl, pH 7.4
# [8] = EYPC LUVs, 0.1 µM polyArg, pH 7.4, 5% error (SD), read-out: PolyArg EC 50
# [9] = EYPC LUVs, 0.1 µM polyArg, pH 7.4
# [10] = EYPC LUVs, 1 µM protamine, pH 7.4, 5% error (SD), read-out: Protamine EC 50
# [11] = EYPC LUVs, 1 µM protamine, pH 7.4
# [12] = EYPC LUVs, 10 µM heptaArg, pH 7.4, carrier concentration for 50% of Ymax, 5% error (SD), read-out: HeptaArg EC 50
# [13] = EYPC vesicles, 10 µM heptaArg, 10 mM Mes, 107 mM NaCl, pH 5.5
# [14] = EYPC vesicles, heptaArg cargo, 10 mM Mes, 107 mM NaCl, pH 5.5, 5% error (SD), read-out: HeptaArg EC50, pH 5.5
# [15] = EYPC vesicles, polyArg cargo, 10 mM Mes, 107 mM NaCl, pH 5.5
# [16] = EYPC vesicles, polyArg cargo, pH 5.5, read-out: PolyArg EC50, pH 5.5
# [17] = EYPC vesicles, protamine cargo, 10 mM Mes, 107 mM NaCl, pH 5.5
# [18] = EYPC vesicles, protamine cargo, pH 5.5, read-out: Protamine EC50, pH 5.5
# [19] = EYPC LUVs, 10 µM heptaArg, pH 7.4
# [20] = EYPC vesicles, protamine, pH 5.5
"% monolacunary [PVWVI11O39]7‒ formed, Mes pH 5.5 after 1 day [1, 3]","% parent anion, Mes pH 5.5 after 1 day [1, 3]",Hydrolysis/stability pH 5.5 ([1]; NMR),"EC50 [2, 6]","EC50 [2, 8]","EC50 [2, 10]","EC50 [2, 12]","EC50 [2, 14]","EC50 [2, 16]","EC50 [2, 18]",Substance,"Ka/ 107, heptalysine (heptalysine)","heptaLys Ymax [2, 5]","HeptaArg Y max [2, 7]","PolyArg Y max [2, 9]","Protamine Y max [2, 11]","HeptaArg Ymax, pH 5.5 [2, 13]","PolyArg Ymax, pH 5.5 [2, 15]","Protamine Ymax, pH 5.5 [2, 17]","heptaLys E [2, 5]",Transport activity (in words) [2],other results
1%,99%,Stable,38 µM,12 µM,41 µM,49 µM,28 µM,5 µM,19 µM,K4[α‐P^VV^VW^VI 11O40]·4H2O [[PVW11]^4‒],2.8 M‒1,62%,84%,88%,88%,79%,91%,79%,4.3,triggered the desired increase in fluorescence characteristic for cargo transport,"% monolacunary [PVWVI11O39]7‒ formed, Mes pH 5.5 after 5 days [1, 3]: 1%; % parent anion, Mes pH 5.5 after 5 days [1, 3]: 99%; % parent (active) anion, Mes pH 5.5 freshly prepared ([1]; 3 mM POM, 10 mM Mes pH 5.5, 31P NMR signal integration, appr. 3 h after dissolution): 99%; % parent anion, Tris-HCl pH 7.5 after 1 day [1, 4]: 71%; % parent anion, Tris-HCl pH 7.5 after 5 days [1, 4]: 68%; PolyArg E (activation efficiency) [2, 9]: 8.2; Protamine E (activation efficiency) [2, 11]: 5.9; HeptaArg E (activation efficiency) [2, 19]: 5.3; HeptaArg E, pH 5.5 ([2]; EYPC vesicles, pH 5.5): 5.9; PolyArg E, pH 5.5 ([2]; EYPC vesicles, pH 5.5): 10.1; Protamine E, pH 5.5 [2, 20]: 6.6; Onset for transport activity (carrier concentration) [2]: around 1 µM"
61%,5%,to [P^VW^VI 11O39]^7‒,–,–,–,–,–,–,–,Na3[α‐P^VW^VI 12O40]·nH2O [[PW12]^3‒],–,–,–,–,–,–,–,–,–,neither an interaction with the membrane nor cargo transport,"% monolacunary [PVWVI11O39]7‒ formed, Mes pH 5.5 freshly prepared [1, 3]: 61%; % parent anion, NaOAc/HOAc pH 4 after 1 day ([1]; 3 mM POM, 10 mM NaOAc/HOAc pH 4, 31P NMR integration): 28%; Carrier activity ([2]; EYPC vesicles, pH 5.5 and 7.4, cargos heptaArg, protamine, polyArg ([AlMo6]: heptaArg and protamine only)): ‐ – ‐ ^k) , ^l)"
–,–,Stable,22 µM,13 µM,19 µM,17 µM,9 µM,5 µM,14 µM,K4[α‐Si^IVMo^VIW^VI 11O40]·24H2O [[SiMoW11]^4‒],4.1 M‒1,54%,66%,94%,72%,66%,86%,80%,4.4,triggered the desired increase in fluorescence characteristic for cargo transport,"Solution stability in Mes pH 5.5 (183W NMR) ([1]; 10 mM POM, 33 mM Mes pH 5.5 (final pH 5), only signals of intact anion, acquisition 60 h): solution stability for up to 60 h; % parent anion, Tris-HCl pH 7.5 (183W NMR) ([1]; 10 mM POM, 33 mM Tris pH 7.5 (final pH 6.9), 183W NMR signal intensities, acquisition 60 h): 45%; Hydrolysis at pH 7.5 (fraction hydrolysed) ([1]; neutral buffer pH 7.5, high concentration, NMR, after 24 h): 45%; PolyArg E (activation efficiency) [2, 9]: 8.6; Protamine E (activation efficiency) [2, 11]: 6.0; HeptaArg E (activation efficiency) [2, 19]: 5.7; HeptaArg E, pH 5.5 ([2]; EYPC vesicles, pH 5.5): 6.6; PolyArg E, pH 5.5 ([2]; EYPC vesicles, pH 5.5): 9.7; Protamine E, pH 5.5 [2, 20]: 7.3; Onset for transport activity (carrier concentration) [2]: around 1 µM"
